Among the data in the supplement of paper PMC10307832 are relative viability values, retold here.

Common to all, as to experiment: relative viability (nuclei count vs DMSO), 5 days (fraction); higher = more cells survive
Compound in assay [1]: C=CCNC1=C2C[C@@H](C)C[C@H](OC)[C@H](O)[C@@H](C)/C=C(\C)[C@H](OC(N)=O)[C@@H](OC)/C=C\C=C(/C)C(=O)NC(=CC1=O)C2=O [17-AAG] + N=C(N)NC(=N)NCCc1ccccc1 [Phenformin] (partner 250 µM)
An outline of the steps:
(§1)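 Relative viability was taken as the ratio of nuclei in treated wells to nuclei in vehicle wells. Lung cancer cell lines in 1536-well plates received compounds by pin tool one day after seeding, either one drug alone or a fixed anchor-drug dose plus five library-drug doses (not always all listed) in √10 steps. Nuclei were counted on 4× images after 5 days of treatment, and values are medians of duplicate plates.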

Compound in assay [2]: C=CCNC1=C2C[C@@H](C)C[C@H](OC)[C@H](O)[C@@H](C)/C=C(\C)[C@H](OC(N)=O)[C@@H](OC)/C=C\C=C(/C)C(=O)NC(=CC1=O)C2=O [17-AAG] + CS(=O)(=O)N1CCN(Cc2cc3nc(-c4cccc5[nH]ncc45)nc(N4CCOCC4)c3s2)CC1 [Pictilisib] (partner 1 µM)
An outline of the steps:
as §1

Compound in assay [3]: C=CCNC1=C2C[C@@H](C)C[C@H](OC)[C@H](O)[C@@H](C)/C=C(\C)[C@H](OC(N)=O)[C@@H](OC)/C=C\C=C(/C)C(=O)NC(=CC1=O)C2=O [17-AAG] + Nc1ncn([C@H]2C[C@H](O)[C@@H](CO)O2)c(=O)n1 [Decitabine] (partner 2 µM)
The method in brief: as §1

Compound in assay [4]: C=CCNC1=C2C[C@@H](C)C[C@H](OC)[C@H](O)[C@@H](C)/C=C(\C)[C@H](OC(N)=O)[C@@H](OC)/C=C\C=C(/C)C(=O)NC(=CC1=O)C2=O [17-AAG] + CC(=O)c1c(C)c2cnc(Nc3ccc(N4CCNCC4)cn3)nc2n(C2CCCC2)c1=O [Palbociclib] (partner 0.5 µM)
An outline of the steps:
as §1

Take H3255: the relative viability was found to be 0.365 in assay [1] (first compound 0.00128 µM); 0.368 in assay [1] (first compound 0.004048 µM); 0.331 in assay [1] (first compound 0.0128 µM); 0.234 in assay [1] (first compound 0.04048 µM); 0.189 in assay [1] (first compound 0.128 µM); 0.424 in assay [2] (first compound 0.00128 µM). In addition, the relative viability turned out to be 0.453 in assay [2] (first compound 0.004048 µM); 0.463 in assay [2] (first compound 0.0128 µM); 0.203 in assay [2] (first compound 0.04048 µM); 0.154 in assay [2] (first compound 0.128 µM); 0.788 in assay [3] (first compound 0.00128 µM); 0.566 in assay [3] (first compound 0.004048 µM). Besides, the relative viability was 0.488 in assay [3] (first compound 0.0128 µM); 0.231 in assay [3] (first compound 0.04048 µM); 0.198 in assay [3] (first compound 0.128 µM); 0.306 in assay [4] (first compound 0.00128 µM); 0.292 in assay [4] (first compound 0.004048 µM); 0.299 in assay [4] (first compound 0.0128 µM). The relative viability was determined as 0.247 in assay [4] (first compound 0.04048 µM) and 0.26 in assay [4] (first compound 0.128 µM).
Turning to EPLC-272H, the relative viability in assay [1] (first compound 0.00128 µM) is 0.32; in assay [1] (first compound 0.004048 µM), 0.327; in assay [1] (first compound 0.0128 µM), 0.202; in assay [1] (first compound 0.04048 µM), 0.095; in assay [1] (first compound 0.128 µM), 0.0918; in assay [2] (first compound 0.00128 µM) it was 0.291. The relative viability in assay [2] (first compound 0.004048 µM) is 0.32; in assay [2] (first compound 0.0128 µM), 0.291; in assay [2] (first compound 0.04048 µM), 0.169; in assay [2] (first compound 0.128 µM) it was 0.168; in assay [3] (first compound 0.00128 µM) it was 0.367; in assay [3] (first compound 0.004048 µM), 0.352. Also, the relative viability in assay [3] (first compound 0.0128 µM) came to 0.307; in assay [3] (first compound 0.04048 µM), 0.158; in assay [3] (first compound 0.128 µM), 0.0907; in assay [4] (first compound 0.00128 µM), 0.34; in assay [4] (first compound 0.004048 µM), 0.323; in assay [4] (first compound 0.0128 µM), 0.348. Further, the results for the relative viability in assay [4] (first compound 0.04048 µM) and in assay [4] (first compound 0.128 µM) were 0.147 and 0.0684, respectively.
As for RERF-LC-KJ, the relative viability turned out to be 0.535 in assay [1] (first compound 0.00128 µM); 0.489 in assay [1] (first compound 0.004048 µM); 0.321 in assay [1] (first compound 0.0128 µM); 0.268 in assay [1] (first compound 0.04048 µM); 0.27 in assay [1] (first compound 0.128 µM); 0.591 in assay [2] (first compound 0.00128 µM). Further, the relative viability in assay [2] (first compound 0.004048 µM) is 0.688; in assay [2] (first compound 0.0128 µM), 0.324; in assay [2] (first compound 0.04048 µM) it was 0.242; in assay [2] (first compound 0.128 µM), 0.21; in assay [3] (first compound 0.00128 µM), 0.66; in assay [3] (first compound 0.004048 µM) it was 0.447. Also, the relative viability in assay [3] (first compound 0.0128 µM) amounted to 0.225; in assay [3] (first compound 0.04048 µM), 0.27; in assay [3] (first compound 0.128 µM), 0.202; in assay [4] (first compound 0.00128 µM), 1.11; in assay [4] (first compound 0.004048 µM), 1.07; in assay [4] (first compound 0.0128 µM) it was 0.857. The figures for the relative viability in assay [4] (first compound 0.04048 µM) and in assay [4] (first compound 0.128 µM) were 0.472 and 0.219, respectively.
NCI-H1793: the relative viability worked out at 0.349 in assay [1] (first compound 0.00128 µM); 0.391 in assay [1] (first compound 0.004048 µM); 0.229 in assay [1] (first compound 0.0128 µM); 0.146 in assay [1] (first compound 0.04048 µM); 0.0817 in assay [1] (first compound 0.128 µM); 0.309 in assay [2] (first compound 0.00128 µM). For the same cell line, the relative viability came to 0.172 in assay [2] (first compound 0.004048 µM); 0.193 in assay [2] (first compound 0.0128 µM); 0.188 in assay [2] (first compound 0.04048 µM); 0.144 in assay [2] (first compound 0.128 µM); 0.429 in assay [3] (first compound 0.00128 µM); 0.382 in assay [3] (first compound 0.004048 µM). In addition, the relative viability in assay [3] (first compound 0.0128 µM) is 0.225; in assay [3] (first compound 0.04048 µM), 0.21; in assay [3] (first compound 0.128 µM), 0.159; in assay [4] (first compound 0.00128 µM), 0.345; in assay [4] (first compound 0.004048 µM), 0.295; in assay [4] (first compound 0.0128 µM), 0.208. The relative viability in assay [4] (first compound 0.04048 µM) worked out at 0.14; in assay [4] (first compound 0.128 µM), 0.17.
On to EKVX, for which the relative viability worked out at 0.26 in assay [1] (first compound 0.00128 µM); 0.222 in assay [1] (first compound 0.004048 µM); 0.139 in assay [1] (first compound 0.0128 µM); 0.195 in assay [1] (first compound 0.04048 µM); 0.0638 in assay [1] (first compound 0.128 µM); 0.43 in assay [2] (first compound 0.00128 µM). Moreover, the relative viability in assay [2] (first compound 0.004048 µM) is 0.472; in assay [2] (first compound 0.0128 µM) it was 0.528; in assay [2] (first compound 0.04048 µM) it was 0.142; in assay [2] (first compound 0.128 µM) it was 0.101; in assay [3] (first compound 0.00128 µM) it was 0.351; in assay [3] (first compound 0.004048 µM), 0.284. The relative viability worked out at 0.257 in assay [3] (first compound 0.0128 µM); 0.162 in assay [3] (first compound 0.04048 µM); 0.139 in assay [3] (first compound 0.128 µM); 0.357 in assay [4] (first compound 0.00128 µM); 0.391 in assay [4] (first compound 0.004048 µM); 0.363 in assay [4] (first compound 0.0128 µM). The results for the relative viability in assay [4] (first compound 0.04048 µM) and in assay [4] (first compound 0.128 µM) were 0.152 and 0.127, respectively.
With ChaGo-K-1, the relative viability worked out at 0.444 in assay [1] (first compound 0.00128 µM); 0.587 in assay [1] (first compound 0.004048 µM); 0.422 in assay [1] (first compound 0.0128 µM); 0.273 in assay [1] (first compound 0.04048 µM); 0.163 in assay [1] (first compound 0.128 µM); 0.759 in assay [2] (first compound 0.00128 µM). The relative viability in assay [2] (first compound 0.004048 µM) amounted to 0.801; in assay [2] (first compound 0.0128 µM), 0.7; in assay [2] (first compound 0.04048 µM), 0.477; in assay [2] (first compound 0.128 µM), 0.26; in assay [3] (first compound 0.00128 µM) it was 0.444; in assay [3] (first compound 0.004048 µM), 0.55. The relative viability in assay [3] (first compound 0.0128 µM) came to 0.491; in assay [3] (first compound 0.04048 µM) it was 0.514; in assay [3] (first compound 0.128 µM) it was 0.428; in assay [4] (first compound 0.00128 µM), 0.956; in assay [4] (first compound 0.004048 µM), 0.922; in assay [4] (first compound 0.0128 µM), 0.768. For the same cell line, the relative viability in assay [4] (first compound 0.04048 µM) turned out to be 0.938; in assay [4] (first compound 0.128 µM) it was 0.703.
